US12077503B2, “Substituted cyclic amides and their use as herbicides” (FMC CORPORATION, priority 2015, dated 2024)

Tests used:
Type in all cases: in vivo
[1] = test system: barnyardgrass (Echinochloa crus-galli); test: Test G Pre-Emergence Protocol; settings: Echinochloa crus-galli, pre-emergence, 312 h, evaluated after 13 days; for pest or weed control at 15.625 g/ha: 15.625 g ai/ha; for pest or weed control at 15.625 g/ha / pest or weed control at 250 g/ha: read-out: Barnyardgrass damage rating (100=total damage to plant; 0=no damage to plant); for pest or weed control at 62.5 g/ha: 62.5 g ai/ha, 100=total damage to plant, 0=no damage to plant, read-out: Barnyardgrass damage rating; for pest or weed control at 250 g/ha: 250 g ai/ha
Method in brief: (§1)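 Visual injury (0–100) at day 13 after a single pre-emergence spray. Rates: 15.625, 62.5, 250 g/ha in acetone–water 50:50 with 0.5% Tween 20. Growth conditions: 24/16° C, 14 h light, 65% humidity.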

corn (Zea mays) [2] = test: Test G Pre-Emergence Protocol; settings: Zea mays, pre-emergence, 312 h, evaluated after 13 days; for plant injury at 15.625 g/ha: 15.625 g ai/ha; for plant injury at 15.625 g/ha / plant injury at 250 g/ha: read-out: Corn damage rating (100=total damage to plant; 0=no damage to plant); for plant injury at 62.5 g/ha: 62.5 g ai/ha, 100=total damage to plant, 0=no damage to plant, read-out: Corn damage rating; for plant injury at 250 g/ha: 250 g ai/ha
Method in brief: as §1

[3] = test system: giant foxtail (Setaria faberi); test: Test G Pre-Emergence Protocol; settings: Setaria faberi, pre-emergence, 312 h, evaluated after 13 days; for pest or weed control at 15.625 g/ha: 15.625 g ai/ha; for pest or weed control at 15.625 g/ha / pest or weed control at 250 g/ha: read-out: Foxtail, Giant damage rating (100=total damage to plant; 0=no damage to plant); for pest or weed control at 62.5 g/ha: 62.5 g ai/ha, 100=total damage to plant, 0=no damage to plant, read-out: Foxtail, Giant damage rating; for pest or weed control at 250 g/ha: 250 g ai/ha
Method in brief: as §1

[4] = test system: ivy-leaved morning glory (Ipomoea hederacea); test: Test G Pre-Emergence Protocol; settings: Ipomoea, pre-emergence, 312 h, evaluated after 13 days; for pest or weed control at 15.625 g/ha: 15.625 g ai/ha; for pest or weed control at 15.625 g/ha / pest or weed control at 250 g/ha: read-out: Morningglory, Ivy-leaved damage rating (100=total damage to plant; 0=no damage to plant); for pest or weed control at 62.5 g/ha: 62.5 g ai/ha, 100=total damage to plant, 0=no damage to plant, read-out: Morningglory, Ivy-leaved damage rating; for pest or weed control at 250 g/ha: 250 g ai/ha
Method in brief: as §1

[5] = test system: redroot pigweed (Amaranthus retroflexus); test: Test G Pre-Emergence Protocol; settings: Amaranthus retroflexus, pre-emergence, 312 h, evaluated after 13 days; for pest or weed control at 15.625 g/ha: 15.625 g ai/ha; for pest or weed control at 15.625 g/ha / pest or weed control at 250 g/ha: read-out: Pigweed, Redroot damage rating (100=total damage to plant; 0=no damage to plant); for pest or weed control at 62.5 g/ha: 62.5 g ai/ha, 100=total damage to plant, 0=no damage to plant, read-out: Pigweed, Redroot damage rating; for pest or weed control at 250 g/ha: 250 g ai/ha
Method in brief: as §1

[6] = test system: velvetleaf (Abutilon theophrasti); test: Test G Pre-Emergence Protocol; settings: Abutilon theophrasti, pre-emergence, 312 h, evaluated after 13 days; for pest or weed control at 15.625 g/ha: 15.625 g ai/ha; for pest or weed control at 15.625 g/ha / pest or weed control at 250 g/ha: read-out: Velvetleaf damage rating (100=total damage to plant; 0=no damage to plant); for pest or weed control at 62.5 g/ha: 62.5 g ai/ha, 100=total damage to plant, 0=no damage to plant, read-out: Velvetleaf damage rating; for pest or weed control at 250 g/ha: 250 g ai/ha
Method in brief: as §1

[7] = test system: barnyardgrass (Echinochloa crus-galli); test: Test G Post-Emergence Protocol; settings: Echinochloa crus-galli, post-emergence, 312 h, read-out: Barnyardgrass damage rating; for pest or weed control at 15.625 g/ha: 15.625 g ai/ha, evaluated after 13 days (100=total damage to plant; 0=no damage to plant); for pest or weed control at 62.5 g/ha: 62.5 g ai/ha; for pest or weed control at 62.5 g/ha / pest or weed control at 250 g/ha: evaluated after 13 days, 100=total damage to plant, 0=no damage to plant; for pest or weed control at 250 g/ha: 250 g ai/ha
Method in brief: (§2)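 Scores run 0 (no damage) to 100 (total damage) and were taken 13 days after spraying. Plants had been raised in pots for 8 days under glasshouse control (24/16 °C, 14 h photoperiod, 65% humidity) and then treated at 15.625, 62.5 or 250 g/ha.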

corn (Zea mays) [8] = test: Test G Post-Emergence Protocol; settings: Zea mays, post-emergence, 312 h, read-out: Corn damage rating; for plant injury at 15.625 g/ha: 15.625 g ai/ha, evaluated after 13 days (100=total damage to plant; 0=no damage to plant); for plant injury at 62.5 g/ha: 62.5 g ai/ha; for plant injury at 62.5 g/ha / plant injury at 250 g/ha: evaluated after 13 days, 100=total damage to plant, 0=no damage to plant; for plant injury at 250 g/ha: 250 g ai/ha
Method in brief: as §2

[9] = test system: giant foxtail (Setaria faberi); test: Test G Post-Emergence Protocol; settings: Setaria faberi, post-emergence, 312 h, read-out: Foxtail, Giant damage rating; for pest or weed control at 15.625 g/ha: 15.625 g ai/ha, evaluated after 13 days (100=total damage to plant; 0=no damage to plant); for pest or weed control at 62.5 g/ha: 62.5 g ai/ha; for pest or weed control at 62.5 g/ha / pest or weed control at 250 g/ha: evaluated after 13 days, 100=total damage to plant, 0=no damage to plant; for pest or weed control at 250 g/ha: 250 g ai/ha
Method in brief: as §2

[10] = test system: ivy-leaved morning glory (Ipomoea hederacea); test: Test G Post-Emergence Protocol; settings: Ipomoea, post-emergence, 312 h, read-out: Morningglory, Ivy-leaved damage rating; for pest or weed control at 15.625 g/ha: 15.625 g ai/ha, evaluated after 13 days (100=total damage to plant; 0=no damage to plant); for pest or weed control at 62.5 g/ha: 62.5 g ai/ha; for pest or weed control at 62.5 g/ha / pest or weed control at 250 g/ha: evaluated after 13 days, 100=total damage to plant, 0=no damage to plant; for pest or weed control at 250 g/ha: 250 g ai/ha
Method in brief: as §2

[11] = test system: redroot pigweed (Amaranthus retroflexus); test: Test G Post-Emergence Protocol; settings: Amaranthus retroflexus, post-emergence, 312 h, read-out: Pigweed, Redroot damage rating; for pest or weed control at 15.625 g/ha: 15.625 g ai/ha, evaluated after 13 days (100=total damage to plant; 0=no damage to plant); for pest or weed control at 62.5 g/ha: 62.5 g ai/ha; for pest or weed control at 62.5 g/ha / pest or weed control at 250 g/ha: evaluated after 13 days, 100=total damage to plant, 0=no damage to plant; for pest or weed control at 250 g/ha: 250 g ai/ha
Method in brief: as §2

[12] = test system: velvetleaf (Abutilon theophrasti); test: Test G Post-Emergence Protocol; settings: Abutilon theophrasti, post-emergence, 312 h, read-out: Velvetleaf damage rating; for pest or weed control at 15.625 g/ha: 15.625 g ai/ha, evaluated after 13 days (100=total damage to plant; 0=no damage to plant); for pest or weed control at 62.5 g/ha: 62.5 g ai/ha; for pest or weed control at 62.5 g/ha / pest or weed control at 250 g/ha: evaluated after 13 days, 100=total damage to plant, 0=no damage to plant; for pest or weed control at 250 g/ha: 250 g ai/ha
Method in brief: as §2

Compound	pest or weed control at 15.625 g/ha [1]	pest or weed control at 62.5 g/ha [1]	pest or weed control at 250 g/ha [1]	plant injury at 15.625 g/ha (corn (Zea mays) [2])	plant injury at 62.5 g/ha (corn (Zea mays) [2])	plant injury at 250 g/ha (corn (Zea mays) [2])	pest or weed control at 15.625 g/ha [3]	pest or weed control at 62.5 g/ha [3]	pest or weed control at 250 g/ha [3]	pest or weed control at 15.625 g/ha [4]	pest or weed control at 62.5 g/ha [4]	pest or weed control at 250 g/ha [4]	pest or weed control at 15.625 g/ha [5]	pest or weed control at 62.5 g/ha [5]	pest or weed control at 250 g/ha [5]	pest or weed control at 15.625 g/ha [6]	pest or weed control at 62.5 g/ha [6]	pest or weed control at 250 g/ha [6]	pest or weed control at 15.625 g/ha [7]	pest or weed control at 62.5 g/ha [7]	other results
Cc1c(F)cccc1NC(=O)[C@@H]1C(=O)N(C)C[C@H]1c1ccc2nonc2c1 (racemic) [Compound 1818]	30%	30%	90%	0%	0%	70%	70%	90%	90%	0%	10%	40%	0%	0%	40%	0%	30%	70%	0%	30%	pest or weed control at 250 g/ha [7]: 80%; plant injury at 15.625 g/ha (corn (Zea mays) [8]): 0%; plant injury at 62.5 g/ha (corn (Zea mays) [8]): 30%; plant injury at 250 g/ha (corn (Zea mays) [8]): 60%; pest or weed control at 15.625 g/ha [9]: 40%; pest or weed control at 62.5 g/ha [9]: 80%; pest or weed control at 250 g/ha [9]: 80%; pest or weed control at 15.625 g/ha [10]: 0%; pest or weed control at 62.5 g/ha [10]: 10%; pest or weed control at 250 g/ha [10]: 40%; pest or weed control at 15.625 g/ha [11]: 0%; pest or weed control at 62.5 g/ha [11]: 0%; pest or weed control at 250 g/ha [11]: 0%; pest or weed control at 15.625 g/ha [12]: 0%; pest or weed control at 62.5 g/ha [12]: 0%; pest or weed control at 250 g/ha [12]: 30%
Cc1cc([C@H]2CN(C)C(=O)[C@@H]2C(=O)Nc2ccccc2S(C)(=O)=O)cc(C(F)(F)F)c1 (racemic) [Compound 1795]	30%	70%	80%	0%	40%	80%	60%	80%	90%	0%	10%	60%	0%	20%	30%	0%	0%	10%	20%	70%	pest or weed control at 250 g/ha [7]: 70%; plant injury at 15.625 g/ha (corn (Zea mays) [8]): 0%; plant injury at 62.5 g/ha (corn (Zea mays) [8]): 40%; plant injury at 250 g/ha (corn (Zea mays) [8]): 70%; pest or weed control at 15.625 g/ha [9]: 60%; pest or weed control at 62.5 g/ha [9]: 80%; pest or weed control at 250 g/ha [9]: 80%; pest or weed control at 15.625 g/ha [10]: 10%; pest or weed control at 62.5 g/ha [10]: 20%; pest or weed control at 250 g/ha [10]: 70%; pest or weed control at 15.625 g/ha [11]: 0%; pest or weed control at 62.5 g/ha [11]: 20%; pest or weed control at 250 g/ha [11]: 30%; pest or weed control at 15.625 g/ha [12]: 0%; pest or weed control at 62.5 g/ha [12]: 0%; pest or weed control at 250 g/ha [12]: 20%
CN1C[C@H](c2cccc(C(F)(F)F)c2)[C@@H](C(=O)Nc2c(O)cccc2F)C1=O (racemic) [Compound 1808]	0%	0%	40%	0%	0%	0%	0%	20%	70%	0%	0%	10%	0%	0%	20%	0%	0%	10%	0%	20%	pest or weed control at 250 g/ha [7]: 60%; plant injury at 15.625 g/ha (corn (Zea mays) [8]): 0%; plant injury at 62.5 g/ha (corn (Zea mays) [8]): 0%; plant injury at 250 g/ha (corn (Zea mays) [8]): 0%; pest or weed control at 15.625 g/ha [9]: 0%; pest or weed control at 62.5 g/ha [9]: 30%; pest or weed control at 250 g/ha [9]: 60%; pest or weed control at 15.625 g/ha [10]: 0%; pest or weed control at 62.5 g/ha [10]: 0%; pest or weed control at 250 g/ha [10]: 0%; pest or weed control at 15.625 g/ha [11]: 0%; pest or weed control at 62.5 g/ha [11]: 0%; pest or weed control at 250 g/ha [11]: 0%; pest or weed control at 15.625 g/ha [12]: 0%; pest or weed control at 62.5 g/ha [12]: 0%; pest or weed control at 250 g/ha [12]: 0%
